Key:
[1] = Comparative solubility of BMDBM in 1:1 C12-15 alkyl benzoate/UV-filter mixtures, HPLC of supernatant after 1 month at RT; details: for effect on solubility of BMDBM in C12-15 alkyl benzoate: conclusion in words
Procedure: The solubility of BMDBM in a 1:1 (w/w) mixture of C12-15 alkyl benzoate and a polymeric, respectively a solid UV-filter (i.e. Polysilicone-15 (P-15), HY-B1, HY-B2, HY-AB, BEMT or Ethylhexyltriazone (EHT)) was determined by mixing 200 mg of BMDBM with 1000 mg of the 1:1 mixture and measuring the BMDBM concentration of the supernatant by HPLC after a storage period of 1 month at RT. Where necessary the mixture was centrifuged in order to obtain a clear supernatant.

[2] = e.g. C12-15 alkyl benzoate or diisopropyl sebaceate; typical value; cited from earlier work
[3] = Reduction of solvent necessary to dissolve solid UV-filter; assay type: physicochemical

Row | SMILES | Solubility of BMDBM in C12-15 alkyl benzoate/UV-filter 1:1 ([1]; 200 mg BMDBM in 1000 mg 1:1 mixture, 1 month at RT, label = UV-filter in mixture) [wt.-%] | Solubility of BMDBM: Δ solubility ([1]; 1:1 mixture versus C12-15 alkyl benzoate, label = UV-filter in mixture) [wt.-%] | effect on solubility of BMDBM in C12-15 alkyl benzoate [1] | Solubility of BMDBM: Δ solubility related to cosmetic solvent ([1]; label = UV-filter in mixture) [wt.-%] | solubility in the conventional cosmetic oils [2] | amount of 1:1 (w/w) mixture of PG-UVB1 and diisopropyl sebacate needed to dissolve 0.5 g BMDBM [3] [g] | amount of 1:1 (w/w) mixture of PG-UVB2 and C12-15 alkyl benzoate necessary to dissolve 0.5 g BMDBM [3] [g] | amount of C12-15 alkyl benzoate necessary to solubilize 0.5 g BMDBM [3] [g] | amount of diisopropyl sebacate necessary to solubilize 0.5 g BMDBM [3] [g] | reduction of the cosmetic solvent necessary to dissolve BMDBM ([3]; 1:1 (w/w) PG-UVB1/diisopropyl sebacate versus diisopropyl sebacate) [%] | reduction of the cosmetic solvent necessary to dissolve BMDBM ([3]; 1:1 (w/w) PG-UVB2/C12-15 alkyl benzoate versus C12-15 alkyl benzoate) [%] | Solubility of BMDBM in C12-15 alkyl benzoate ([1]; reference value without UV-filter, repeated per column) [wt.-%]
1 | CCCCC(CC)COc1ccc(-c2nc(-c3ccc(OC)cc3)nc(-c3ccc(OCC(CC)CCCC)cc3O)n2)c(O)c1 (stereo not shown) [BEMT, bis-ethylhexyloxyphenol methoxyphenyl triazine] | 3 | −11 | neither be enhanced | −4 |  |  |  |  |  |  |  | 
2 | COc1ccc(C(=O)CC(=O)c2ccc(C(C)(C)C)cc2)cc1 [BMDBM, butyl methoxydibenzoylmethane] |  |  |  |  | less than 20% | 1.4 | 1.5 | 3.0 | 2.0 | 65 | 75 | 14
3 | CCCCC(CC)COC(=O)c1ccc(Nc2nc(Nc3ccc(C(=O)OCC(CC)CCCC)cc3)nc(Nc3ccc(C(=O)OCC(CC)CCCC)cc3)n2)cc1 (stereo not shown) [EHT, Ethylhexyltriazone] |  |  | neither be enhanced |  |  |  |  |  |  |  |  | 

From patent publication US8951508B2, “Compound” (DSM IP Assets B.V., priority 2009, dated 2015)
